SMILES	melting point [°C]
CC(C)c1c(C(=O)c2cccnc2)c2ccccc2n1C	114
O=C(O)c1ccc(SCc2c(O[C@H](Cn3ccnc3)c3ccccc3)ccc3c2CCCC3=O)cc1	215
O=C(O)CCNC(=O)CNC(=O)c1csc(NC(=O)NCc2ccccc2)n1	174
CC1(C)C(=O)Oc2ccc(Br)cc21	55 to 56
O=C([C@H]1CCc2cc(Cl)c(Cl)cc21)N1CCSC[C@H]1CN1CCCC1	123 to 124
Cc1nnc2ccc(-c3cccc(N4CCCC4=O)c3)nn12	235 to 237
COC(=O)C(=C\c1c(OC)cc(OC)cc1OC)/C(=C\c1ccccc1)C(=O)O	208 to 210
Cc1cn(Nc2ccncn2)c2ccccc12	121 to 123
O=C(O)CCCCC1SCc2[nH]c(=O)[nH]c21 (single isomer, unassigned; (-))	189 to 199
Cc1cc(-n2ccc(OCCC3CC3)cc2=O)sc1C(=O)NCc1ccccc1	134 to 136
Cc1oc(-c2ccccc2)nc1Cc1cccc(CC2COC(C)(C)OC2)c1	85 to 87
COC(=O)c1ccc(C=O)cc1SCc1ccccc1	91 to 93
CC(C)NC(=O)Nc1ccnc(Cl)c1	142 to 146
O=C(c1cc2c(cc1F)OC(c1ccccc1Cl)(c1ccccc1Cl)O2)N1CCOCC1	98
COCCN1CCc2ccc(Nc3ncc(Cl)c(N[C@@H]4CCCC[C@H]4NC(=O)C(F)(F)F)n3)cc2CC1	180 to 182
O=S1NC(Cc2ccc3c(Cl)cccc3c2)=NO1 (centres undefined)	164 to 165
CCc1nn(C)c(CC)c1NC(N)=S	234 to 235
Cc1cc(C(=O)CCCCCCCCC(=O)c2cc(C)c(O)c(C(C)(C)C)c2)cc(C(C)(C)C)c1O	165 to 168
CCON=Cc1c(S(C)(=O)=O)ccc(C(=O)C2C(=O)CC(C)(C)CC2=O)c1Cl	156 to 157
CC(=O)CC(=O)NCC1(C)CC(NC(=O)CC(C)=O)CC(C)(C)C1 (centres undefined)	144 to 147
C=CCSc1nc(O)ns1	84
CN1CC(CCC#N)Oc2ncccc2C1=S (centres undefined)	155 to 156
O=c1[nH]c(=O)n(CCCN2CCC(OC(c3ccccc3)c3ccccc3)CC2)c2ccccc12	149 to 151
CCc1nc(/C=C/c2cn(-c3ccccc3)nc2OCc2ccc(OCc3nc(-c4ccc(C(=O)O)o4)oc3C)c(OC)c2)cs1	154 to 155
CCOC(=O)c1c(-c2ccc(F)cc2)cc(-c2ccccc2Cc2ccccc2)nc1C(C)C	94 to 97

SMILES	melting point [°C]
O=c1ccn(CCO)c(C(O)c2ccccc2)c1O (centres undefined)	198 to 200
CC#CCOCCCCCCCCCCCCOC(=O)C1CC1	38 to 40
CCCCCC(=O)N1C(CCCCC)NC(=O)CC1C(=O)O (centres undefined)	55 to 56
COCc1cc2c(-c3ccc(C(F)(F)F)n(C)c3=O)c(F)cc(Cl)c2o1	136 to 137
O=C(Nc1cccc(Br)c1)Oc1ccc2ncccc2c1	260
CC(C)c1ocnc1C(=O)O	136 to 137
CSc1c(CC(=O)O)ccc2c3ccccc3n(Cc3ccc(F)cc3)c12	156 to 157
CCOC(=O)c1c(C)nc2ccn(-c3ccc(Cl)cc3)n2c1=O	175 to 177
Cc1nc(SCc2ncccc2C(=O)O)sc1CC(=O)O	225 to 227
CC(=O)OC[C@H]1O[C@@H](Cn2ccc(=S)[nH]c2=O)[C@@H](OC(C)=O)[C@@H]1OC(C)=O	100 to 105
Cc1cc(-c2n[nH]c(-c3ccncc3)n2)ccn1	245 to 248
O=[N+]([O-])c1ccc(OC(F)(F)c2ccccc2)cc1	46 to 48
CN1C(=O)C(c2ccc(OC(F)F)cc2)(c2cccc(CCCC(F)(F)F)c2)N=C1N (centres undefined)	70
COc1c(N2CC3CC3(CN)C2)c(F)cc2c(=O)c(C(=O)O)cn(C3CC3)c12 (centres undefined)	194 to 196
NC(=O)c1ccc(F)c2c1C=C([N+](=O)[O-])CO2	225 to 227
OC(c1ccccc1)(c1ncc[nH]1)c1ccccc1Cl (centres undefined)	186 to 188
CN1CCC2(CC1)SC(C(C(=O)OC(C)(C)C)N1C(=O)c3ccccc3C1=O)NC2C(=O)OCc1ccccc1 (centres undefined)	173 to 175
CCOC(=O)c1ccc(CCNS(=O)(=O)C=Cc2ccccc2)cc1	59 to 61
CCCn1c(COCC)nc2c(N)nc3ccc(OC4CCNCC4)cc3c21	176 to 178
Cn1ccnc1-c1ccc(C(=O)CN=[N+]=[N-])cc1	> 250
CCn1c(=O)c(-c2c(Cl)cccc2Cl)cc2cnc(Nc3cc(OC)c(OC)c(OC)c3)nc21	275 to 278
Cc1oc(-c2ccccc2)nc1COc1ccccc1CO	155 to 156
CCOC(=O)c1ccc(C=C(C)c2ccc3c(c2)SCCC3(C)C)cc1	64 to 65
CC1(C)CCSc2ccc(Br)cc21	51
O=C(c1ccccc1)N1CCC(COc2ccccc2)CC1	95 to 96

SMILES	melting point [°C]
O=C1C=C(c2ccccc2C(F)(F)F)CO1	49 to 50
CN1C2CCC1CN(C(=O)c1ccc(-c3ccc(N)cc3)o1)C2	190 to 191
COc1ccc(C(=O)Nc2cc(NC(=O)c3cccc(N(C)C)c3)ccc2F)cc1OC	187 to 188
O=[N+]([O-])c1cc2c(c3ccc(S(=O)(=O)NCCO)cc13)C(CCl)CN2 (centres undefined)	173 to 174
COC(=O)N1CCc2c(O)noc2C1	136 to 138
O=C(CCCOc1ccc2nc3[nH]c(=O)[nH]c3cc2c1)N1CCCCC1	284 to 286
N#CCCN(N)c1nc2ccccc2o1	169 to 170
NCc1ccn(-c2cc3c(cc2[N+](=O)[O-])[nH]c(=O)c(=O)n3C2CCCCC2)c1	> 300
CC(=O)ON1Cc2ccccc2C1=O	69 to 71
COC(=O)C1=C(Nc2ccccc2N)CSC1	101
O=C(O)c1cccc2[nH]cc(Cc3ccc(OCc4ccc5ccccc5n4)cc3)c12	209 to 211
Fc1ccc(-c2n[nH]cc2-c2ccnc(Nc3ccccc3F)n2)cc1	239 to 240
CC(=O)c1c(-c2ccncc2)[nH]c(-c2ccncc2)c1C(F)(F)F	250 to 255
Cc1nc(NC(=O)c2ccccc2)sc1C(=O)NCc1ccccc1C(F)(F)F	198 to 199
CCCn1nc(Cc2ccc(-c3ccccc3-c3nnn(C(c4ccccc4)(c4ccccc4)c4ccccc4)n3)cc2)c(C(=O)OCC)c1C(C)C	158 to 159
c1ccc(C(Oc2ccc(-c3nc(COc4ccc(CCCn5ccnc5)cc4)co3)cc2)c2ccccc2)cc1	106 to 107
CC1(C)OC(=O)N(C(=O)/C=C/c2ccccc2)[C@@H]1c1ccccc1	149
CCOC(=O)c1cc(O)cc(C(=O)OCC)c1	106
c1ccc2c(CSCc3cccc4ccccc34)cccc2c1	104 to 106
CCn1cc(C(=O)O)c(=O)c2c(F)c(F)c(N3CCN(C)CC3)c(F)c21	221 to 223
CC1(C)CCC(C)(C)c2cc(NC(=O)c3ccccc3)ccc21	146 to 148
COc1c(C(C)(C)C)cc(COc2cccc(C=C3SC(=S)NC3=O)c2)cc1C(C)(C)C	239 to 243
C[C@H](NC(=O)c1cccc(NS(=O)(=O)CC2CN(C(c3ccc(Cl)cc3)c3ccc(Cl)cc3)C2)c1)C(N)=O	229
CCOC(=O)C1=C(C)N2CCCC2=C(C(C)=O)C1c1ccccc1C#N (centres undefined)	167
CN(C)C(=S)ON1C(=O)C2CCCCC2C1=O (centres undefined)	124 to 126

SMILES	melting point [°C]
COc1ccc(-c2cc(-c3ccc(OC)c(OC)c3)c(C#N)c(C)n2)cc1	187 to 188
CCC1CN(c2c(F)cc3c(=O)c(C(=O)O)cn(C4CC4F)c3c2OC)CC1(C)N (centres undefined)	113 to 115
CC(=O)Nc1nc(CCc2ccc(NC(=O)OC(C)(C)C)cc2)c(C(=O)NCc2ccc(S(C)(=O)=O)cc2)s1	192 to 193
CCN(CC(OC)OC)C(=O)Nc1ccc(C(O)(C(F)(F)F)C(F)(F)F)cc1	138 to 140
ClC1(CBr)C=CC=CN1 (centres undefined)	40 to 43
N#Cc1nn(-c2c(Cl)cc(C(F)(F)F)cc2Cl)cc1C=NO	170
O=C(CCl)N1Cc2ccccc2P1(=O)c1ccccc1 (centres undefined)	167 to 169
CCOC(=O)C(=O)CC(=O)c1cn(Cc2cccc(F)c2)c2ccccc2c1=O	174 to 175
Cc1[nH]c(=S)[nH]c(=O)c1Cc1cccnc1	328 to 331
O=S(=O)(Nc1ccc(Cl)cc1-c1cc(-c2ccc(Cl)cc2Cl)on1)C(F)(F)F	142 to 144
O=S(CCCCCOc1ccc(C2=C(c3ccccc3)CCCc3cc(O)ccc32)cc1)CCCC(F)(F)C(F)(F)F (centres undefined)	138 to 140
CN(C1CCN(Cc2cccs2)CC1)S(=O)(=O)c1ccc(Nc2nccc(Nc3ccc(F)cc3)n2)cc1	175 to 176
CC(c1oc2ccccc2c(=O)c1-c1cccc(F)c1)n1nc(-c2csc(CO)c2)c2c(N)ncnc21 (centres undefined)	154 to 156
COc1nc(C)nc(NC(=O)NS(=O)(=O)c2cccs2)n1	182 to 184
CC(=O)Nc1cnc(C=NNC(N)=S)cc1C	229 to 231
O=C(CCCCCNC(=O)[C@H](Cc1c[nH]c2ccccc12)NC(=O)CCCc1c[nH]c2ccccc12)NO	94 to 96
CN1CCN(C(=O)c2ccc(CCc3cc4cc(C#N)ccc4o3)cc2)CC1	115 to 116
O=C(Oc1ccccc1)OC1CN(C(=O)Oc2ccccc2)CCC1c1ccccc1 (centres undefined)	153 to 154
Clc1cc(-c2ccccc2)ncn1	95 to 98
O=[N+]([O-])c1cc2nc(O)c(O)nc2c2nonc12	> 300
COc1c(-c2ccc3cc(NS(C)(=O)=O)ccc3c2)cc(-n2ccc(=O)[nH]c2=O)cc1C(C)(C)CO	256 to 257
O=C(CC1c2ccccc2C(=O)N1C1CCCCC1)N1CCCCC1 (centres undefined)	158 to 160
CS(=O)(=O)c1ccc([C@@H](CC2CCC(=O)CC2)C(=O)O)cc1Cl	129 to 131
CC(Cc1ccc(C(=O)c2ccc(Cl)cc2)cc1)S(=O)(=O)C(F)(F)F (centres undefined)	107 to 109

From a melting point compilation (Tetko et al.; mined from patent text by program, amines drawn as free bases though some values may be those of a salt)
